Assay results published in publication PMC12744750 (Plant Communications, 2025).

Assays:
ETR1:HA = experiment: Co-IP competition: synthetic PLS vs PLS:GFP binding to ETR1:HA in N. benthamiana leaves; design: species or system Arabidopsis; conditions: 25 nM synthetic PLS(FL), 0.5 μM CuSO4, 50 μM MG-132, 30 min before tissue harvest
Description: To investigate the interaction between the PLS peptide and the ethylene receptor ETR1, two DNA constructs were created by Gateway cloning. The […] PLS gene (without the stop codon) was inserted into the pEarlyGate103 (pEG103) destination vector, which contained the pro35S promoter and a C-terminal GFP tag, to produce a vector containing pro35S::PLS:GFP DNA. The ETR1 cDNA was inserted into the pEarlyGate301 (pEG301) vector to create a pro35S::ETR1:HA construct to express an ETR1 protein with a C-terminal HA tag. pro35S::GFP was used as a control. The primers used to clone ETR1 and PLS are found in supplemental Table 9.
Constructs were transiently expressed in N. benthamiana (tobacco) leaves as described previously ([Voinnet et al., 2003]). Experiments were replicated up to five times. Competent Agrobacterium tumefaciens GV3101 cells were transformed with the desired plasmid containing the gene of interest and injected with a syringe. The plants were approximately 7–10 weeks old; the chosen leaves were healthy and 3–6 cm in length, and 3 to 4 leaves were infiltrated with each construct. […]
SDS–PAGE was used to separate protein fragments. The complexed proteins from the pulldown assay were analyzed on 10%–12% acrylamide gels. […] The horseradish peroxidase conjugated to the secondary antibody was detected using X-ray film. […]

[1] = Anaerobic Cu(I) titration in competition with bicinchoninic acid (BCA); type: binding
Procedure: Freeze-dried synthetic PLS peptide (Cambridge Research Biochemicals) was dissolved in DMSO. An aliquot was added to aqueous buffer (10 mM HEPES [pH 7], 20 mM NaCl, 80 mM KCl), and absorbance was recorded at 280 nm. PLS concentration was estimated from the absorbance and the ProtParam estimated extinction coefficient of 2980 M^−1 cm^−1. Concurrently, a sample was submitted for quantitative amino acid analysis (Abingdon Health Laboratory Services). From this analysis, a conversion factor of 2.27 was generated, which was applied to the concentrations determined by A280 nm.
A fusion of PLS to MBP was created using the NEBExpress MBP Fusion and Purification System. Two complementary oligonucleotide primers encoding PLS (optimized for expression in E. coli) were annealed and inserted into the pMal-c5x plasmid at the XmnI and SalI insertion sites. The three mutants MBP:PLS(C6S), MBP:PLS(C17S), and MBP:PLS(C6S/C17S) were created by site-directed mutagenesis (QuikChange II, Agilent). E. coli NEB Express containing the pMal plasmid with the correct MBP:PLS mutant was used to overexpress each protein. Harvested cells were resuspended in 20 mM Tris–HCl (pH 7.4), 200 mM NaCl, and 1 mM EDTA, then frozen at −20°C overnight. Cells were defrosted in cold H2O, sonicated, purified by ammonium sulfate precipitation (where MBP-PLS precipitates >60% saturation), separated on an MBP-Trap column (GE Healthcare), and eluted using buffer containing 10 mM maltose. MBP:PLS-containing fractions were pooled and concentrated using a centrifugal concentrator (Corning, Spin-X UF 30 kDa) and buffer exchanged by desalting column into a metal-free buffer of 20 mM HEPES (pH 7.0) and 50 mM NaCl in an anaerobic chamber (Belle Technology). Mutants containing thiols were quantified using Ellman’s assay, and MBP:PLS(C6S/C17S), which lacks all thiols, was quantified using the Bradford assay alone. Samples were also analyzed for metal content by ICP–MS to ensure >95% apo-protein.
All Cu(I) titration experiments were carried out in an anaerobic chamber (Belle Technology) using metal-free CHELEX-treated, degassed buffers. For titration experiments with Cu(I), aqueous CuSO4 stock was quantified in advance by ICP–MS and diluted to working concentrations. The reductant NH2OH was included at a final concentration of 1 mM to maintain Cu(I) in its reduced state. Proteins were diluted in buffer to the final concentration specified in each titration in air-tight quartz cuvettes (Helma), and after addition of probe to the concentration specified, titrated with CuSO4. After each addition, solutions were thoroughly mixed and absorbance spectra recorded using a Lambda 35 UV/Vis spectrophotometer (PerkinElmer). Titration isotherm data were fitted using simulated affinity curves with DynaFit ([Kuzmič, 2009]).

[2] = 44.8 μM synthetic PLS, 87 μM BCA, anaerobic

## PLS(FL): full-length 36-amino-acid PLS peptide from Arabidopsis (MKPRLCFNFRRRSISPCYISISYLLVAKLFKLFKIH)
ETR1:HA
  reduction in PLS:GFP binding to ETR1:HA: ~80%
[1]; [2]
  Cu(I) affinity relative to BCA: tighter than that of BCA
  increase in Cu(I) concentration required to saturate BCA: ~20 µM
[1]; synthetic peptide, mutant 40 μM, BCA 93.3 μM, mean ± SD, n = 3 (supplemental Figure 10)
  withholding of Cu(I) from BCA: withholds Cu(I) from BCA
